From patent US20100317625A1, “NOVEL SULFONAMIDOMETHYLP[…] BETA-LACTAMASE” (priority 2006, published 2010)
Values after ≈ are worked out from the molar mass of the structure shown.

How the values were obtained:
[1] = test system: CL 5701 (Pseudomonas aeruginosa; Pa AmpC); assay: microbe, parasite or virus in culture; conditions: read-out: Imipenem MIC
Text: (§1) The assay determines the concentration of a β-lactamase inhibitor required to reduce the MIC of a β-lactam antibiotic by one-half, one-quarter, one-eighth, one-sixteenth and one-thirty-second against strains of bacteria normally resistant to the antibiotic in question. This is accomplished by titrating the inhibitor (BLI=beta-lactamase inhibitor) in a serial dilution across a microtiter plate while at the same time titrating the antibiotic (AB) in a serial dilution down the microtiter plate and then inoculating the plate with the bacterial strain in question and allowing the bacteria to grow up overnight. Each well in this microplate checkerboard contains a different combination of concentrations of the inhibitor and the antibiotic allowing a full determination of any synergy between the two.
(§2) 100 μL is serially diluted from row A to row G of each MIC 2000 plate. […] 100 μL is removed from each well in row G of each MIC 2000 plate. […] 100 μL is serially diluted from column 1 to column 11 of each MIC 2000 plate. […] Plates are left at 37° C. for about 20 hours and scored for growth by eye. […]
(§3) Plates are scored for growth in each well. End points (MICs) where there is no growth in each row are determined and the concentrations of AB and the test BLI at each of these growth negative wells are then used to determine levels of synergy.

[2] = test system: CL 6188 (Acinetobacter baumanii; Oxa40); assay: microbe, parasite or virus in culture; conditions: Acinetobacter baumannii, read-out: Imipenem MIC
Text: as §1, §2, §3

C[C@@H](O)[C@H]1C(=O)N2C(C(=O)O)=C(SCCN=CN)C[C@H]12 [Imipenem]
MIC [1]: 20 µg/mL (≈ 66.8 µM)
MIC [2]: 128 µg/mL (≈ 428 µM)
